Experimental data published in PubChem BioAssay (NCI).
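Growth conditions: 96-well plates. Treatment: test compound, 48 hours, 5 concentrations. Analysis: linear interpolation between bracketing concentrations; unreached endpoints set to highest concentration. Here, GI50 denotes the concentration required for 50% inhibition of growth. Definition used: TGI = concentration required for complete inhibition of growth.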

Legend:
Assay in all cases: NCI anticancer screen, dose series, 48 h
786-0 renal = test system: 786-0 renal
M14 melanoma = test system: M14 melanoma
NCI-H23 lung = test system: NCI-H23 lung
NCI/ADR-RES ovarian = test system: NCI/ADR-RES ovarian
OVCAR-8 ovarian = test system: OVCAR-8 ovarian
SK-MEL-2 melanoma = test system: SK-MEL-2 melanoma
SK-MEL-5 melanoma = test system: SK-MEL-5 melanoma
SN12C renal = test system: SN12C renal
SNB-19 CNS = test system: SNB-19 CNS
T-47D breast = test system: T-47D breast

SMILES | GI50 (786-0 renal) [µM] | TGI (786-0 renal) [µM] | GI50 (M14 melanoma) [µM] | TGI (M14 melanoma) [µM] | GI50 (NCI-H23 lung) [µM] | TGI (NCI-H23 lung) [µM] | GI50 (NCI/ADR-RES ovarian) [µM] | TGI (NCI/ADR-RES ovarian) [µM] | GI50 (OVCAR-8 ovarian) [µM] | TGI (OVCAR-8 ovarian) [µM] | GI50 (SK-MEL-2 melanoma) [µM] | TGI (SK-MEL-2 melanoma) [µM] | GI50 (SK-MEL-5 melanoma) [µM] | TGI (SK-MEL-5 melanoma) [µM] | GI50 (SN12C renal) [µM] | TGI (SN12C renal) [µM] | GI50 (SNB-19 CNS) [µM] | TGI (SNB-19 CNS) [µM] | GI50 (T-47D breast) [µM] | TGI (T-47D breast) [µM]
c1ccc(-c2n(Cc3ccc4ccccc4n3)c3ccccc3[n+]2Cc2ccc3ccccc3n2)cc1 | 1.03 | 2.33 | 0.289 | 1.43 | 0.262 | 1.14 | 13.6 | > 55.6 | 0.341 | 1.46 | 0.298 | 1.11 | 0.219 | 0.502 | 0.302 | 1.22 | 0.277 | 1.31 | 0.193 | 1.96
Cc1cc(C)cc(Nc2nccc(-c3c(-c4ccc(F)cc4)ncn3C3CCNCC3)n2)c1 | 1.31 | 2.79 | 1.59 | 3.18 | 1.88 | 4.21 | 1.79 | 4.07 | 1.66 | 5.01 | 2.04 | 4.09 | 1.75 | 3.31 | 1.21 | 2.59 | 1.68 | 3.71 | 1.42 | 3.79
COc1cc(C(=O)/C=C/c2c(-c3ccc(F)cc3)nc3sccn23)cc(OC)c1OC | 2.54 | 6.49 | 2.33 | 9.44 | 2.43 | 10.6 | 2.05 | 6.28 | 2.4 | > 21.4 | 5.59 | > 27.9 | 1.28 | 2.81 | 2 | 15.8 | 3.37 | 27.8 | 2.3 | 14.3
COc1ccc(C(=O)Nc2ncc(Cc3ccc(F)cc3)s2)cc1 | 0.11 | > 100 | 0.0378 | > 100 | 0.368 | > 100 | 0.0511 | > 100 | 0.135 | > 100 | 3.95 | > 100 | 0.0422 | 2.26 | 0.0988 | > 100 | 0.0963 | > 100 | 0.06 | > 100
O=C(Cc1ccc(/C=C/C(=O)c2ncc[nH]2)cc1)Nc1ccc(Br)cc1 | 0.946 | 3.13 | 3.11 | 7.83 | 2.2 | 8.5 | 4.61 | > 16.7 | 4.04 | > 16.7 | > 16.7 | > 16.7 | 5.77 | > 16.7 | 2.59 | 6.93 | 2.54 | 7.99 | 3.82 | > 16.7
N#Cc1cc2cc3c4c(c2oc1=O)CCCN4CCC3 | – | > 100 | – | > 100 | – | > 100 | – | > 100 | – | > 100 | – | > 100 | – | > 100 | – | > 100 | – | > 100 | – | > 100
CC(=O)NNC(=O)c1nn(-c2ccc(Cl)cc2)cc1OC(C)=O | 14.4 | > 100 | 14.2 | 49.7 | 22.2 | 97.2 | 17 | 69.7 | 22.3 | > 100 | > 64.7 | > 100 | 10.4 | > 69.1 | 20.8 | > 100 | > 70.2 | > 100 | 13.7 | 94.6
O=C1C[C@@H](c2ccccc2)NCCCCN(O)CCCN1 | – | > 100 | – | > 100 | – | > 100 | – | > 100 | – | > 100 | – | > 100 | – | > 100 | – | > 100 | – | > 100 | – | > 100
Cn1cc(-c2csc(-c3cn(CCN4CCOCC4)c4ccc(F)cc34)n2)c2cccnc21 | 2.91 | 11.4 | 2.09 | 4.89 | 2.47 | 7.89 | 2.36 | 8.15 | 2.75 | 7.88 | 2.53 | 7.28 | 1.85 | 3.56 | 3.15 | > 100 | 3.93 | > 100 | 1.52 | 4.73
Nc1c(C(=O)Nc2cccc3ccccc23)sc2nc3c(cc12)CCCC3 | 1.11 | > 100 | 0.464 | > 100 | 3.43 | > 100 | 0.833 | > 100 | 4.56 | > 100 | 1.04 | > 100 | 0.459 | 10.7 | 6 | > 100 | 4.12 | > 100 | 0.44 | 90.5
Clc1ccccc1-c1nc2ccccc2[nH]1 | > 100 | > 100 | > 100 | > 100 | > 100 | > 100 | > 100 | > 100 | > 100 | > 100 | > 100 | > 100 | > 100 | > 100 | > 100 | > 100 | > 100 | > 100 | > 100 | > 100
COC(=O)Nc1nc2c(OC)c(OC)c(OC)cc2[nH]1 | 66.4 | > 100 | 8.9 | > 100 | 39.1 | > 100 | 8.91 | 97.6 | 38.7 | > 100 | 15.1 | > 91.6 | 9.34 | > 100 | 74 | > 100 | 45.7 | > 100 | 33.2 | > 100
OC(COc1ccc(Cl)cc1Cl)CN1CCCC1 (centres undefined) | – | > 100 | – | 41.1 | – | > 100 | – | > 100 | – | > 100 | – | > 100 | – | > 100 | – | > 100 | – | > 100 | – | > 100
CC(C)(C)c1ccc(C(=O)N/N=C/c2ccc(O)cc2O)cc1 | 0.53 | 3.3 | 0.409 | 9.83 | 0.839 | 13.3 | 0.351 | 19.3 | 0.54 | > 100 | 1.89 | 16 | 0.913 | 3.4 | 0.801 | 13 | 0.825 | 17.9 | 0.786 | 32.6
COC(=O)[C@]12CC[C@@H](C)[C@H](C)[C@@H]1C1=CC[C@@H]3[C@@]4(C)C(c5ncon5)=C[C@@](C)(CO)C4=CC[C@@]3(C)[C@]1(C)CC2 | 2.91 | 8.58 | 2.07 | 4.88 | 2.01 | 4.52 | 2.28 | 5.72 | 3.41 | 10.2 | 2.05 | 4.22 | 1.88 | 3.41 | 3.05 | 10.6 | 2.84 | 11.6 | 1.99 | 5.86
Cn1c2ccccc2c2cc(-c3ccccc3)c3c(c21)C(=O)C=CC3=O | – | 22.7 | – | 47.9 | – | 42.6 | – | > 100 | – | 78.3 | – | 49.9 | – | > 62.7 | – | 47.2 | – | > 100 | – | 49.9
c1ccc(Cn2cc3c(c2)-c2oncc2CC3)cc1 | 1.86 | > 30.8 | 0.528 | > 100 | 1.77 | > 100 | 0.554 | 7.22 | 2.79 | > 39.1 | 5.29 | 87.5 | 0.348 | 11.8 | 2.26 | > 100 | 1.27 | > 100 | 2.25 | > 100
Cc1cc[c-]cc1.Fc1c[c-]c(-c2ccccn2)c(F)c1.N#CCC[PH+](CCC#N)c1ccccc1.[Pt+2] | 3.57 | 18.8 | 2.94 | 10.9 | 3.45 | 12.9 | 4.24 | 52.8 | 4 | > 100 | 2.41 | 6.57 | 2.24 | 5.36 | 3.17 | 36.1 | 4.91 | > 100 | 2.79 | 41.1
COc1cc(C2c3cc4c(cc3C3OC(=O)C2C3CO)OCO4)cc(OC)c1OC (centres undefined) | 0.0437 | > 100 | 0.0333 | > 100 | 0.0317 | > 100 | 0.0181 | 0.0607 | 0.0274 | > 100 | 0.0337 | > 100 | 0.0176 | 0.047 | 0.0457 | > 100 | – | > 100 | 0.0181 | > 100
NC1=CC(=O)C(=O)c2cccnc21 | 14.8 | 28 | 1.83 | 6.29 | 2.06 | 7.84 | 3.6 | 24 | 3.21 | 16.6 | 3.85 | 15.6 | 1.51 | 2.84 | 3.11 | 13.4 | 5.86 | 21.6 | 3.68 | 9.73
